For 15 molecules, IC50 results are on record in patent publication US12583849B2, “KCNT1 inhibitors and methods of use” (Praxis Precision Medicines, Inc., priority 2020, dated 2026).

The test concerns the target T1, KCNT1 (KNa1.1, Slack) (Homo sapiens, UniProt Q5JUK3).
T1 construct: expressed in transfected cells; host or cells: HEK-TREX (tetracycline-inducible cell line)
T1 sequence (Q5JUK3 1-1230): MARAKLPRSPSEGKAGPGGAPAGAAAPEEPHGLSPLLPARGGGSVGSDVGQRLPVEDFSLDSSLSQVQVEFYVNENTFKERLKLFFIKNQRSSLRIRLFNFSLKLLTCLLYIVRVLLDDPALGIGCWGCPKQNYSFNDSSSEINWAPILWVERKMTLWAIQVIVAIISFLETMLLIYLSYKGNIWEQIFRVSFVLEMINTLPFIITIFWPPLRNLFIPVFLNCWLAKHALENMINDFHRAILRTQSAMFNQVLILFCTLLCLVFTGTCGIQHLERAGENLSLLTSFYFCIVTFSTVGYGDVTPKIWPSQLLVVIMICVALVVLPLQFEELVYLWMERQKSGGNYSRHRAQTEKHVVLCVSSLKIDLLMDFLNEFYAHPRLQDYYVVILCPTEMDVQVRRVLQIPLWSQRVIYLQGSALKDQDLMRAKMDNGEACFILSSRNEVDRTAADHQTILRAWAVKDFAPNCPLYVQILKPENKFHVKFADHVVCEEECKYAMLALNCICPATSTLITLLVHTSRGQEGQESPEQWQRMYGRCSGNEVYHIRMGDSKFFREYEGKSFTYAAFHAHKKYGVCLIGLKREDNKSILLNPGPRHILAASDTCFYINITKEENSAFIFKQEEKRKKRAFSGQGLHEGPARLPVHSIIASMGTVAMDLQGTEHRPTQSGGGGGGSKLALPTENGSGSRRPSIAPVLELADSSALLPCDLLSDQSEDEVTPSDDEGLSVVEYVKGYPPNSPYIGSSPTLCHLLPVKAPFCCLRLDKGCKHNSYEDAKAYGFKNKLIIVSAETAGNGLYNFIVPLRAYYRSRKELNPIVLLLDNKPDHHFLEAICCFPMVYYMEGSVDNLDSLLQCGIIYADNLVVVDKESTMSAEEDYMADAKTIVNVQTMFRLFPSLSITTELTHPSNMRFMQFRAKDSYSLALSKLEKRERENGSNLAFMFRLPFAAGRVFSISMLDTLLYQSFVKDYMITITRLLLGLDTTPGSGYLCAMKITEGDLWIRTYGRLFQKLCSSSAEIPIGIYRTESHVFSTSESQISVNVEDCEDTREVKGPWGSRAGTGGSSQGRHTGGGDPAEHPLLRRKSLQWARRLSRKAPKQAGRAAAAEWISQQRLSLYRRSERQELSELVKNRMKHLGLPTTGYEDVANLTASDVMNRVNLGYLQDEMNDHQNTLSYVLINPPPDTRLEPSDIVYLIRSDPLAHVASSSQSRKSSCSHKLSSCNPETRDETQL
The test can be described thus: KCNT1-WT-Basal Patch Clamp Assay. The format is cell-based. The following applies: tetracycline inducible cell line (HEK-TREX); SyncroPatch 384PE automated patch clamp, perforated patch mode, room temperature, step from -80 mV to 0 mV. The procedure: KCNT1-WT-Basal—Patch Clamp Assay
Inhibition of KCNT1 (KNa1.1, Slack) was evaluated using a tetracycline inducible cell line (HEK-TREX). Currents were recorded using the SyncroPatch 384PE automated, patch clamp system. Pulse generation and data collection were performed with PatchController384 V1.3.0 and DataController384 V1.2.1 (Nanion Technologies). The access resistance and apparent membrane capacitance were estimated using built-in protocols. Current were recorded in perforated patch mode (10 μM escin) from a population of cells. The cells were lifted, triturated, and resuspended at 800,000 cells/ml. The cells were allowed to recover in the cell hotel prior to experimentation. Currents were recorded at room temperature. The external solution contained the following (in mM): NaCl 105, NMDG 40, KCl 4, MgCl2 1, CaCl2 5 and HEPES 10 (pH=7.4, Osmolarity ˜300 mOsm). The extracellular solution was used as the wash, reference and compound delivery solution. The internal solution contained the following (in mM): NaCl 70, KF 70, KCl 10, EGTA 5, HEPES 5 and Escin 0.01 (pH=7.2, Osmolarity ˜295 mOsm). Escin is made at a 5 mM stock in water, aliquoted, and stored at −20° C. The compound plate was created at 2× concentrated in the extracellular solution. The compound was diluted to 1:2 when added to the recording well. The amount of DMSO in the extracellular solution was held constant at the level used for the highest tested concentration. A holding potential of −80 mV with a 100 ms step to 0 mV was used. Mean current was measured during the step to 0 mV. […] The average mean current from 3 sweeps was calculated and the % inhibition of each compound was calculated. The % Inhibition as a function of the compound concentration was fit with a Hill equation to derive IC50, slope, min and max parameters. If KCNT1 inhibition was less than 50% at the highest tested concentration or if an IC50 could not be calculated, then a percent inhibition was reported in place of the IC50.
In this table, “A” indicates IC50 of less than or equal to 1 μM; “B” indicates inhibition of between 1 μM to 20 μM; and “C” indicates inhibition of greater than or equal to 20 μM.
(In general: The patch-clamp technique gives a direct electrical read-out from membranes.)

For `COC1CCC(C(=O)N[C@@H](C)c2nc(-c3ccnc(C(F)(F)F)c3)no2)CC1` (stereo partly drawn) [Compound I-69, (S)-4-methoxy-N-(1-(3-(2-(trifluoromethyl)pyridin-4-yl)-1,2,4-oxadiazol-5-yl)ethyl)cyclohexane-1-carboxamide], the 50% inhibitory concentration (IC50) lay in the range of 1000 to 20000 nM.

`C[C@H](NC(=O)c1cccc(OC(F)(F)F)c1)c1nc(-c2ccnc(C3CC3)c2)no1` [Compound I-103, (S)—N-(1-(3-(2-cyclopropylpyridin-4-yl)-1,2,4-oxadiazol-5-yl)ethyl)-3-(trifluoromethoxy)benzamide] registered a half-inhibitory concentration (IC50) of at most 1000 nM. With `C[C@H](NC(=O)c1nc(-c2ccccc2)nn1C)c1nc(-c2cccc(F)c2)no1` [Compound I-38, (S)—N-(1-(3-(3-fluorophenyl)-1,2,4-oxadiazol-5-yl)ethyl)-1-methyl-3-phenyl-1H-1,2,4-triazole-5-carboxamide] the figure was at least 20000 nM; with `C[C@H](NC(=O)c1csc(C(F)(F)F)n1)c1nc(-c2ccnc(C(F)(F)F)c2)no1` [Compound I-10, (S)-2-(trifluoromethyl)-N-(1-(3-(2-(trifluoromethyl)pyridin-4-yl)-1,2,4-oxadiazol-5-yl)ethyl)thiazole-4-carboxamide], at most 1000 nM. As to `C[C@H](NC(=O)CN(C)C)c1nc(-c2ccnc(C(F)(F)F)c2)no1` [III-1, (S)-2-(dimethylamino)-N-(1-(3-(2-(trifluoromethyl)pyridin-4-yl)-1,2,4-oxadiazol-5-yl)ethyl)acetamide], the IC50 was at least 20000 nM. As for `C[C@H](NC(=O)C1CCCC12CC2)c1nc(-c2ccnc(C(F)(F)F)c2)no1` (stereo partly drawn) [Compound I-82, N-[(1S)-1-[3-[2-(trifluoromethyl)-4-pyridyl]-1,2,4-oxadiazol-5-yl]ethyl]spiro[2.4]heptane-7-carboxamide], the figure is at most 1000 nM.

In turn, `C[C@H](NC(=O)C1CCCN(C)C1)c1nc(-c2ccnc(C(F)(F)F)c2)no1` (stereo partly drawn) [Compound I-68, 1-methyl-N—((S)-1-(3-(2-(trifluoromethyl)pyridin-4-yl)-1,2,4-oxadiazol-5-yl)ethyl)piperidine-3-carboxamide] yielded an IC50 of at least 20000 nM. The molecule `C[C@H](NC(=O)C1CCC(O)CC1)c1nc(-c2ccnc(C(F)(F)F)c2)no1` (single isomer, unassigned) [Compound I-77] had an IC50 of at least 20000 nM.

Molecule `C[C@H](NC(=O)[C@H]1CC[C@H](C)CC1)c1nc(-c2ccnc(C(F)(F)F)c2)no1` [Compound I-26, trans-4-methyl-N—((S)-1-(3-(2-(trifluoromethyl)pyridin-4-yl)-1,2,4-oxadiazol-5-yl)ethyl)cyclohexane-1-carboxamide] had a concentration for half-maximal inhibition (IC50) of at most 1000 nM. `C[C@H](NC(=O)C1CCN(C)CC1)c1nc(-c2ccnc(C(F)(F)F)c2)no1` [Compound I-65, (S)-1-methyl-N-(1-(3-(2-(trifluoromethyl)pyridin-4-yl)-1,2,4-oxadiazol-5-yl)ethyl)piperidine-4-carboxamide] registered an IC50 of at least 20000 nM. `COc1cccc(C(=O)N[C@@H](C)c2nc(-c3ccnc(C4CC4)c3)no2)c1` [Compound I-79] came in with an IC50 of at most 1000 nM. For `CC(C)Oc1cc(-c2noc([C@H](C)NC(=O)NC(C)(C)C)n2)ccn1` [II-1], the IC50 was at most 1000 nM.

The molecule `CC(NC(=O)c1cn2ccccc2n1)c1nc(-c2cccc(F)c2)no1` (stereo not drawn) [Compound I-50, N-[1-[3-(3-fluorophenyl)-1,2,4-oxadiazol-5-yl]ethyl]imidazo[1,2-a]pyridine-2-carboxamide] showed an IC50 of at least 20000 nM. With `CC1CC(C(=O)N[C@@H](C)c2nc(-c3ccnc(C(F)(F)F)c3)no2)C1` (mixture of isomers) [Compound I-74, 3-methyl-N-[(1S)-1-[3-[2-(trifluoromethyl)-4-pyridyl]-1,2,4-oxadiazol-5-yl]ethyl]cyclobutanecarboxamide] the figure was at most 1000 nM; with `C[C@H](NC(=O)CC(C)(C)C)c1nc(-c2ccnc(C(F)(F)F)c2)no1` [III-3, (S)-3,3-dimethyl-N-(1-(3-(2-(trifluoromethyl)pyridin-4-yl)-1,2,4-oxadiazol-5-yl)ethyl)butanamide], 1000 to 20000 nM.

The term IC50 denotes the concentration that inhibits the measured activity by half.
